Measurements as given in patent publication US20150119360A1, “COMPOSITION FOR PROMOTING BIFIDOBACTERIA GROWTH” (Kyoto University, priority 2012, published 2015).

Key:
Experiment in all cases: Growth-promoting (prebiotic) effect, OD600 after 24 hr anaerobic culture in GAM bouillon
Type in all cases: cell-based
[1] = tested on: Bifidobacterium longum subsp. Longum NCC2705 strain; conditions: B. longum subsp. Longum NCC2705, 0.5 (w/v) % oligosaccharide, 37° C.
Procedure: (§1) The microorganisms were purchased from independent administrative agency RIKEN Tsukuba Laboratory BioResource Center (3-1-1 Koyadai, Tsukuba, Ibaraki 305-0074, Japan). As Bifidobacterium longum subsp. longum NCC2705, the strain preserved under GenBank accession number NC004307 was used.
(§2) Glycerol stock of each strain shown in Table 1 was plated in GAM bouillon (manufactured by Nissui Pharmaceutical Co., Ltd.) agar medium, and cultured using a gas pack (“Anaeropack”, manufactured by Mitsubishi Gas Chemical Company, Inc.), under anaerobic conditions at 37° C. for 2 days to renature the test strain. Each strain was inoculated in 5 mL GAM bouillon liquid medium, and precultured in the same manner as above under an anaerobic condition at 37° C. for 18 hr.
(§3) The turbidity (OD600) of each culture medium was measured at wavelength 600 nm on completion of the preculture. The preculture medium was seeded in 1 mL of main test liquid medium such that the OD600 value at the time of start of the culture was 0.010, the cells were cultured under anaerobic conditions at 37° C. for 24 hr in the same manner as above, and OD600 of the culture medium was measured on completion of the culture. The liquid medium for the test was prepared by adding LNT or LNnT to the GAM bouillon liquid medium at a final concentration of 0.5 (w/v) %. In addition, GAM bouillon liquid medium free of both oligosaccharides LNT, LNnT was used as a control. To evaluate the growth-promoting effect (prebiotic effect) of LNT and LNnT, the relative value of the oligosaccharide (LNT or LNnT) addition plot, when the measurement value OD600 of the oligosaccharide non-addition plot (control) was 1, is shown in FIG. 2.

[2] = tested on: Bifidobacterium longum subsp. Longum 7054 strain; conditions: B. longum subsp. Longum 7054, 0.5 (w/v) % oligosaccharide, 37° C.
Procedure: as §1, §2, §3

[3] = tested on: Bifidobacterium longum subsp. Longum 1217 strain; conditions: B. longum subsp. Longum 1217, 0.5 (w/v) % oligosaccharide, 37° C.
Procedure: as §1, §2, §3

Measured: prebiotic effect (OD600 of oligosaccharide addition test plot/OD600 of control plot)

4-O-[3-[2-(acetylamino)-2-deoxy-3-O-(β-D-galactopyranosyl)-β-D-glucopyranosyl]-β-D-galactopyranosyl]-D-glucose [LNT]
≥ 2 fold: all assays above
